Data reported in ChEMBL document CHEMBL3244021, “Structure and biological activity of (-)-[3H]dihydroalprenolol, a radioligand for studies of beta-adrenergic receptors” (J Med Chem, 1977).

Columns and labels:
[1] = Displacement of (-)-[3H]dihydroalprenolol from beta adrenergic receptor in frog erythrocyte membrane after 10 mins by liquid scintillation counting analysis; format: cell membranes, Anura
[2] = Antagonist activity at beta adrenergic receptor in frog erythrocyte membrane assessed as inhibition of (-)-isoproterenol-stimulated adenylate cyclase activity measured as [32P]-cAMP level; format: cell membranes, Anura
[3] = Binding affinity to beta adrenergic receptor in frog erythrocyte membrane after 10 mins by liquid scintillation counting analysis; format: cell membranes, Anura
[4] = Stability of the compound; format: physicochemical

Kd [1] | Kd [2] | Kd [3] | Stability [4] | Compound
2.5 nM | 4 nM | – | – | C=CCc1ccccc1OCC(O)CNC(C)C (configuration not stated)
2.5 nM | 4 nM | – | – | CCCc1ccccc1OCC(O)CNC(C)C (single isomer, unassigned; (-))
– | 4 nM | 3 nM | Stable | [3H]C([3H])([3H])C([3H])([3H])Cc1ccccc1OCC(O)CNC(C)C (single isomer, unassigned; (-))
